Measured values as given in patent US20260256792A1, “TREATMENT OF CHRONIC SPONTANEOUS URTICARIA BY ADMINISTERING (R)-2-[3-[4-AMINO-3-(2-FLUORO-4-PHENOXY-PHENYL)PYRAZOLO[3,4-D]PYRIMIDIN-1-YL]PIPERIDINE-1-CARBONYL]-4-METHYL-4-[4-(OXETAN-3-YL)PIPERAZIN-1-YL]PENT-2-ENENITRILE” (priority 2023, published 2026).

How the values were obtained:
cardiac repolarization = details: healthy volunteers (N=51), also supratherapeutic doses; cited from earlier work
IL-31 = assay: Phase 2 CSU study: serum IL-31 HTRF assay; type: in vivo, human; details: for IL-31 (ng/mL) Median Percent Change from Baseline: Baseline to Week 12
Text: Blood samples were also collected through Week 12 to evaluate the change in baseline in various biomarkers, including sMRGPRX2, IgG anti-TPO, IgG anti-FCεRI, IgG anti-IgE, and IL-31.
Collection of biological samples for other biomarker research was also part of this study. The following samples for biomarker research were required and were to be collected from all participants in this study: • Serum and plasma samples for soluble biomarkers and cellular tests. Analytes included IgG anti-IgE, IgG anti-FcεRI, IgG anti-TPO, IgE anti-TPO, IL-31, and sMRGPRX2. • Blood samples for immune cell phenotyping, including measurement of eosinophil levels • Blood samples for BTK occupancy in peripheral blood mononuclear cells (PBMCs) at selected sites
For each patient, serum samples were to be collected on each of four visits (Visits 2, 4, 6, and end of study/follow up).
Serum analyte testing was to be performed using the following commercial assays: • sMRGPRX2 ELISA (Cat. No. #MBS933336; MyBioSource) • IL-31 HTRF assay (Cat. No. #62HIL31PEG; Cisbio/PerkinElmer) • IgG anti-TPO ELISA (Cat. No. #ORG503; Orgentec Diagnostica GmbH)
If dilutions were to be prepared, the same dilutions were to be prepared twice from each sample. These were to be measured on different plates. Each plate was to include a standard curve. Samples were to be measured twice for all biomarkers except for sMRGPRX2. Mean measurement values were to be calculated, and the concentration of the biomarker was to be calculated using GraphPad Prism 9 software (4-PL model).
The IL-31 HTRF assay was performed according to the manufacturer's instructions.
Assay data ranges are described below. • sMRGPRX2: 0.1 ng/mL-10 ng/mL • IgG anti-FCεRI: 0-10000 arbitrary units (AU) • IgG anti-TPO: 0-3000 international units (IU) • IgE anti-TPO: 0-500 AU • IgG anti-IgE: 0-100000 AU • IL-31: 0.1 ng/mL-20 ng/mL

Compound: CC(C)(C=C(C#N)C(=O)N1CCC[C@@H](n2nc(-c3ccc(Oc4ccccc4)cc3F)c3c(N)ncnc32)C1)N1CCN(C2COC2)CC1 [rilzabrutinib, (R)-2-[3-[4-amino-3-(2-fluoro-4-phenoxy-phenyl)pyrazolo[3,4-d]pyrimidin-1-yl]piperidine-1-carbonyl]-4-methyl-4-[4-(oxetan-3-yl)piperazin-1-yl]pent-2-enenitrile]
- effects on cardiac repolarization (ECG parameters incl. corrected QT interval) (cardiac repolarization): does not exert clinically relevant effects
- reduction from baseline median IL-31 levels (IL-31; 400 mg TID, Week 12): 8.1%
- IL-31 (ng/mL) Median Percent Change from Baseline (IL-31; 400 mg BID): −6.8%
- IL-31 (ng/mL) Median Percent Change from Baseline (IL-31; 400 mg QPM): −11.6%
- IL-31 (ng/mL) Median Percent Change from Baseline (IL-31; 400 mg TID): −8.1%
